Assay results reported in ChEMBL document CHEMBL1201862, “PubChem BioAssay data set” (2004).
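Results reflect a 48-hour exposure of cells in 96-well plates to compound at five concentrations. At the GI50, growth is halved.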 Active and inactive are the calls of the source. No stated cut-off is given here; in the data, active = GI50 up to about 1.1 µM and inactive = higher.

How the values were obtained:
Assay in all cases: growth of human tumour cells (NCI), 48 h
NCI-H23 = system: NCI-H23
OVCAR-3 = system: OVCAR-3
SW-620 = system: SW-620
A549 = system: A549
NCI/ADR-RES = system: NCI/ADR-RES
LOX IMVI = system: LOX IMVI
RPMI-8226 = system: RPMI-8226
CCRF-CEM = system: CCRF-CEM
SNB-75 = system: SNB-75
T47D = system: T47D
DU-145 = system: DU-145
UACC-62 = system: UACC-62
SF-539 = system: SF-539
OVCAR-8 = system: OVCAR-8
SNB-19 = system: SNB-19
NCI-H226 = system: NCI-H226
A498 = system: A498
IGROV-1 = system: IGROV-1
SF-295 = system: SF-295
HCT-15 = system: HCT-15
SN12C = system: SN12C
NCI-H460 = system: NCI-H460
CAKI-1 = system: CAKI-1
HOP-92 = system: HOP-92
MDA-MB-231 = system: MDA-MB-231
SK-MEL-5 = system: SK-MEL-5
HT-29 = system: HT-29
SK-OV-3 = system: SK-OV-3
Hs-578T = system: Hs-578T
TK-10 = system: TK-10
OVCAR-4 = system: OVCAR-4
ACHN = system: ACHN
U-251 = system: U-251
SK-MEL-2 = system: SK-MEL-2
SF-268 = system: SF-268
K562 = system: K562
KM12 = system: KM12
UACC-257 = system: UACC-257
SR = system: SR
UO-31 = system: UO-31
COLO 205 = system: COLO 205
Malme-3M = system: Malme-3M
786-0 = system: 786-0
HL-60 = system: HL-60
M14 = system: M14
MDA-N = system: MDA-N
EKVX = system: EKVX
HCC 2998 = system: HCC 2998
MCF7 = system: MCF7
HOP-62 = system: HOP-62
MOLT-4 = system: MOLT-4
SK-MEL-28 = system: SK-MEL-28
PC-3 = system: PC-3
HCT-116 = system: HCT-116
BT-549 = system: BT-549
RXF 393 = system: RXF 393
NCI-H522 = system: NCI-H522
MDA-MB-435 = system: MDA-MB-435
OVCAR-5 = system: OVCAR-5

SMILES: COc1cc([C@@H]2c3cc4c(cc3[C@H](OC3OC5COC(C(C)C)OC5C(O)C3O)C3COC(=O)[C@@H]32)OCO4)cc(OC)c1OC (some centres not stated)
- GI50 (NCI-H23): 4.55 µM (inactive)
- GI50 (OVCAR-3): 2.62 µM (inactive)
- GI50 (SW-620): 4.48 µM (inactive)
- GI50 (A549): 3.96 µM (inactive)
- GI50 (NCI/ADR-RES): 3.19 µM (inactive)
- GI50 (LOX IMVI): 3.01 µM (inactive)
- GI50 (RPMI-8226): 5.71 µM (inactive)
- GI50 (CCRF-CEM): 3.49 µM (inactive)
- GI50 (SNB-75): 11.6 µM (inactive)
- GI50 (T47D): 12.7 µM (inactive)
- GI50 (DU-145): 11.7 µM (inactive)
- GI50 (UACC-62): 4.7 µM (inactive)
- GI50 (SF-539): 3.6 µM (inactive)
- GI50 (OVCAR-8): 4.13 µM (inactive)
- GI50 (SNB-19): 6.19 µM (inactive)
- GI50 (NCI-H226): 2.96 µM (inactive)
- GI50 (A498): 2.89 µM (inactive)
- GI50 (IGROV-1): 4.17 µM (inactive)
- GI50 (SF-295): 3.47 µM (inactive)
- GI50 (HCT-15): 4.49 µM
- GI50 (SN12C): 19.5 µM (inactive)
- GI50 (NCI-H460): 2.34 µM (inactive)
- GI50 (CAKI-1): 4.15 µM (inactive)
- GI50 (HOP-92): 6.85 µM (inactive)
- GI50 (MDA-MB-231): 5.77 µM (inactive)
- GI50 (SK-MEL-5): 5.55 µM (inactive)
- GI50 (HT-29): 2.54 µM (inactive)
- GI50 (SK-OV-3): 6.32 µM (inactive)
- GI50 (Hs-578T): 3.17 µM (inactive)
- GI50 (TK-10): 32 µM (inactive)
- GI50 (OVCAR-4): 16.6 µM (inactive)
- GI50 (ACHN): 4.79 µM (inactive)
- GI50 (U-251): 3.93 µM (inactive)
- GI50 (SK-MEL-2): 8.36 µM (inactive)
- GI50 (SF-268): 5.81 µM (inactive)
- GI50 (K562): 3.19 µM (inactive)
- GI50 (KM12): 3.61 µM (inactive)
- GI50 (UACC-257): 5.01 µM (inactive)
- GI50 (SR): 2.11 µM (inactive)
- GI50 (UO-31): 11.1 µM (inactive)
- GI50 (COLO 205): 4.59 µM (inactive)
- GI50 (Malme-3M): 4.57 µM (inactive)
- GI50 (786-0): 2.58 µM (inactive)
- GI50 (HL-60): 3.85 µM (inactive)
- GI50 (M14): 5.24 µM (inactive)
- GI50 (MDA-N): 2.18 µM (inactive)
- GI50 (EKVX): 10.2 µM (inactive)
- GI50 (HCC 2998): 5.16 µM (inactive)
- GI50 (MCF7): 3.38 µM (inactive)
- GI50 (HOP-62): 7.24 µM (inactive)
- GI50 (MOLT-4): 4.84 µM (inactive)
- GI50 (SK-MEL-28): > 100 µM (inactive)
- GI50 (PC-3): 4.89 µM (inactive)
- GI50 (HCT-116): 2.83 µM (inactive)
- GI50 (BT-549): 5.52 µM (inactive)
- GI50 (RXF 393): 2.3 µM (inactive)
- GI50 (NCI-H522): 3.24 µM (inactive)
- GI50 (MDA-MB-435): 4.37 µM (inactive)
- GI50 (OVCAR-5): 10.3 µM (inactive)

SMILES: Nc1nc(N)c2nc(CNc3ccc(C(=O)O)cc3)[nH]c2n1
- GI50 (NCI-H23): > 100 µM (inactive)
- GI50 (OVCAR-3): > 100 µM (inactive)
- GI50 (SW-620): > 100 µM (inactive)
- GI50 (A549): > 100 µM (inactive)
- GI50 (NCI/ADR-RES): > 100 µM (inactive)
- GI50 (LOX IMVI): > 100 µM (inactive)
- GI50 (RPMI-8226): > 100 µM (inactive)
- GI50 (CCRF-CEM): > 100 µM (inactive)
- GI50 (SNB-75): > 100 µM (inactive)
- GI50 (T47D): > 100 µM (inactive)
- GI50 (DU-145): > 100 µM (inactive)
- GI50 (UACC-62): > 100 µM (inactive)
- GI50 (SF-539): > 100 µM (inactive)
- GI50 (OVCAR-8): > 100 µM (inactive)
- GI50 (SNB-19): > 100 µM (inactive)
- GI50 (NCI-H226): > 100 µM (inactive)
- GI50 (A498): > 100 µM (inactive)
- GI50 (IGROV-1): > 100 µM (inactive)
- GI50 (SF-295): > 100 µM (inactive)
- GI50 (HCT-15): > 100 µM
- GI50 (SN12C): > 100 µM (inactive)
- GI50 (NCI-H460): > 100 µM (inactive)
- GI50 (CAKI-1): > 100 µM (inactive)
- GI50 (HOP-92): > 100 µM (inactive)
- GI50 (MDA-MB-231): > 100 µM (inactive)
- GI50 (SK-MEL-5): > 100 µM (inactive)
- GI50 (HT-29): > 100 µM (inactive)
- GI50 (SK-OV-3): > 100 µM (inactive)
- GI50 (Hs-578T): > 100 µM (inactive)
- GI50 (TK-10): > 100 µM (inactive)
- GI50 (OVCAR-4): > 100 µM (inactive)
- GI50 (ACHN): > 100 µM (inactive)
- GI50 (U-251): > 100 µM (inactive)
- GI50 (SK-MEL-2): > 100 µM (inactive)
- GI50 (SF-268): > 100 µM (inactive)
- GI50 (K562): > 100 µM (inactive)
- GI50 (KM12): > 100 µM (inactive)
- GI50 (UACC-257): > 100 µM (inactive)
- GI50 (SR): > 100 µM (inactive)
- GI50 (UO-31): > 100 µM (inactive)
- GI50 (COLO 205): > 100 µM (inactive)
- GI50 (Malme-3M): > 100 µM (inactive)
- GI50 (786-0): > 100 µM (inactive)
- GI50 (HL-60): > 100 µM (inactive)
- GI50 (M14): > 100 µM (inactive)
- GI50 (MDA-N): > 100 µM (inactive)
- GI50 (EKVX): > 100 µM (inactive)
- GI50 (HCC 2998): 27.9 µM (inactive)
- GI50 (MCF7): > 100 µM (inactive)
- GI50 (HOP-62): > 100 µM (inactive)
- GI50 (MOLT-4): > 100 µM (inactive)
- GI50 (SK-MEL-28): > 100 µM (inactive)
- GI50 (PC-3): > 100 µM (inactive)
- GI50 (HCT-116): > 100 µM (inactive)
- GI50 (BT-549): > 100 µM (inactive)
- GI50 (RXF 393): > 100 µM (inactive)
- GI50 (NCI-H522): > 100 µM (inactive)
- GI50 (MDA-MB-435): > 100 µM (inactive)
- GI50 (OVCAR-5): > 100 µM (inactive)

SMILES: CC(C)(C)N(Cc1ccc2c(c1)OCO2)C(=O)/C=C\[S+]([O-])c1ccccc1 (configuration not stated)
- GI50 (NCI-H23): 2.27 µM (inactive)
- GI50 (OVCAR-3): 1.99 µM (inactive)
- GI50 (SW-620): 2.07 µM (inactive)
- GI50 (A549): 4.6 µM (inactive)
- GI50 (NCI/ADR-RES): 2.48 µM (inactive)
- GI50 (LOX IMVI): 1.44 µM (inactive)
- GI50 (RPMI-8226): 1.67 µM (inactive)
- GI50 (CCRF-CEM): 0.83 µM (active)
- GI50 (SNB-75): 2.99 µM (inactive)
- GI50 (T47D): 2.56 µM (inactive)
- GI50 (DU-145): 2.73 µM (inactive)
- GI50 (UACC-62): 3.37 µM (inactive)
- GI50 (SF-539): 2.3 µM (inactive)
- GI50 (OVCAR-8): 2.03 µM (inactive)
- GI50 (SNB-19): 7.67 µM (inactive)
- GI50 (NCI-H226): 2.74 µM (inactive)
- GI50 (A498): 9.48 µM (inactive)
- GI50 (IGROV-1): 3.21 µM (inactive)
- GI50 (SF-295): 9.79 µM (inactive)
- GI50 (HCT-15): 2.65 µM
- GI50 (SN12C): 2.63 µM (inactive)
- GI50 (NCI-H460): 4.19 µM (inactive)
- GI50 (CAKI-1): 4.53 µM (inactive)
- GI50 (HOP-92): 2.29 µM (inactive)
- GI50 (MDA-MB-231): 2.95 µM (inactive)
- GI50 (SK-MEL-5): 2.82 µM (inactive)
- GI50 (HT-29): 3.23 µM (inactive)
- GI50 (SK-OV-3): 3.01 µM (inactive)
- GI50 (Hs-578T): 2.33 µM (inactive)
- GI50 (TK-10): 4.55 µM (inactive)
- GI50 (OVCAR-4): 3.1 µM (inactive)
- GI50 (ACHN): 3.97 µM (inactive)
- GI50 (U-251): 4.33 µM (inactive)
- GI50 (SK-MEL-2): 3.02 µM (inactive)
- GI50 (SF-268): 1.23 µM (inactive)
- GI50 (K562): 2.9 µM (inactive)
- GI50 (KM12): 3.85 µM (inactive)
- GI50 (UACC-257): 3.48 µM (inactive)
- GI50 (SR): 1.44 µM (inactive)
- GI50 (UO-31): 2.19 µM (inactive)
- GI50 (COLO 205): 3.01 µM (inactive)
- GI50 (Malme-3M): 1.91 µM (inactive)
- GI50 (786-0): 2.25 µM (inactive)
- GI50 (HL-60): 2.11 µM (inactive)
- GI50 (M14): 2.28 µM (inactive)
- GI50 (MDA-N): 2.4 µM (inactive)
- GI50 (EKVX): 7.29 µM (inactive)
- GI50 (HCC 2998): 4.45 µM (inactive)
- GI50 (MCF7): 2.77 µM (inactive)
- GI50 (HOP-62): 4.88 µM (inactive)
- GI50 (MOLT-4): 2.3 µM (inactive)
- GI50 (SK-MEL-28): 7.89 µM (inactive)
- GI50 (PC-3): 2.5 µM (inactive)
- GI50 (HCT-116): 2.74 µM (inactive)
- GI50 (BT-549): 2.43 µM (inactive)
- GI50 (RXF 393): 1.91 µM (inactive)
- GI50 (NCI-H522): 0.516 µM (active)
- GI50 (MDA-MB-435): 2.12 µM (inactive)
- GI50 (OVCAR-5): 10.7 µM (inactive)
